Assay results taken from US12227500B2, “Substituted pyrrolo[2,3-b]pyridines for suppressing toxic endoplasmic reticulum stress” (THE TRUSTEES OF COLUMBIA UNIVERSITY IN THE CITY OF NEW YORK, priority 2018, dated 2025).

Columns and labels:
Experiment in all cases: Radiolabeled ATP kinase assay, panel of 371 kinases (Table S6)
Format in all cases: biochemical
[1] = target: T1, panel of 371 human kinases (Homo sapiens, UniProt Q15303); settings: ERBB4/HER4; 0.1 μM; 10 μM ATP; read-out: % Enzyme Activity (relative to DMSO controls)
T1 construct: purchased Reaction Biology Corp
Description: (§1) ; FIG. 38C). […]. Further targeted analyses, such as genetic knock-down or knock-out, may be warranted to parse the role of these additional kinases in our model of neurodegeneration.

[2] = target: T2, panel of 371 human kinases (Homo sapiens, UniProt Q5TCY1); settings: TTBK1; 0.1 μM; 10 μM ATP; read-out: % Enzyme Activity (relative to DMSO controls)
T2 construct: purchased Reaction Biology Corp
Description: as §1

[3] = target: T3, panel of 371 human kinases (Homo sapiens, UniProt O43353); settings: RIPK2; 0.1 μM; 10 μM ATP; read-out: % Enzyme Activity (relative to DMSO controls)
T3 construct: purchased Reaction Biology Corp
Description: as §1

[4] = target: T4, panel of 371 human kinases (Homo sapiens, UniProt P36896); settings: ALK4/ACVR1B; 0.1 μM; 10 μM ATP; read-out: % Enzyme Activity (relative to DMSO controls)
T4 construct: purchased Reaction Biology Corp
Description: as §1

[5] = target: T5, panel of 371 human kinases (Homo sapiens, UniProt P51957); settings: NEK4; 0.1 μM; 10 μM ATP; read-out: % Enzyme Activity (relative to DMSO controls)
T5 construct: purchased Reaction Biology Corp
Description: as §1

[6] = target: T6, panel of 371 human kinases (Homo sapiens, UniProt Q9H3Y6); settings: SRMS; 0.1 μM; 10 μM ATP; read-out: % Enzyme Activity (relative to DMSO controls)
T6 construct: purchased Reaction Biology Corp
Description: as §1

[7] = target: T7, panel of 371 human kinases (Homo sapiens, UniProt Q9Y6E0); settings: MST3/STK24; 0.1 μM; 10 μM ATP; read-out: % Enzyme Activity (relative to DMSO controls)
T7 construct: purchased Reaction Biology Corp
Description: as §1

[8] = target: T8, panel of 371 human kinases (Homo sapiens, UniProt P36897); settings: ALK5/TGFBR1; 0.1 μM; 10 μM ATP; read-out: % Enzyme Activity (relative to DMSO controls)
T8 construct: purchased Reaction Biology Corp
T8 sequence (P36897 34-503): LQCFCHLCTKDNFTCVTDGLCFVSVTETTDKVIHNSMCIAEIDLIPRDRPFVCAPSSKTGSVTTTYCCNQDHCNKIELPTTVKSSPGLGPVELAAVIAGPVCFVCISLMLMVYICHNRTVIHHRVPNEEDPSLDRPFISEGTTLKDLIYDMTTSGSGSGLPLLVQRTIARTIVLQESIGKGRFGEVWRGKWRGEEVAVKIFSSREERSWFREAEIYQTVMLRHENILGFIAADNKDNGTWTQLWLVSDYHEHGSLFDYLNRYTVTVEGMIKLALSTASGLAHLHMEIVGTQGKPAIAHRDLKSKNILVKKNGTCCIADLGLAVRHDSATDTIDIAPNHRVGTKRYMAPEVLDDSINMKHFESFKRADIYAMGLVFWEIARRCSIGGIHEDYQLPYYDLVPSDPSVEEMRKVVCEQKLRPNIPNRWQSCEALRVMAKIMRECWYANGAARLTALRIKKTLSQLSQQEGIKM
Description: as §1

[9] = target: T9, panel of 371 human kinases (Homo sapiens, UniProt P54760); settings: EPHB4; 0.1 μM; 10 μM ATP; read-out: % Enzyme Activity (relative to DMSO controls)
T9 construct: purchased Reaction Biology Corp
Description: as §1

[10] = target: T10, panel of 371 human kinases (Homo sapiens, UniProt Q8IU85); settings: CAMK1d; 0.1 μM; 10 μM ATP; read-out: % Enzyme Activity (relative to DMSO controls)
T10 construct: purchased Reaction Biology Corp
Description: as §1

[11] = target: T11, panel of 371 human kinases (Homo sapiens, UniProt O00444); settings: PLK4/SAK; 0.1 μM; 10 μM ATP; read-out: % Enzyme Activity (relative to DMSO controls)
T11 construct: purchased Reaction Biology Corp
Description: as §1

[12] = target: T12, panel of 371 human kinases (Homo sapiens, UniProt Q76MJ5); settings: ERN2/IRE2; 0.1 μM; 10 μM ATP; read-out: % Enzyme Activity (relative to DMSO controls)
T12 construct: purchased Reaction Biology Corp
T12 sequence (Q76MJ5 35-926): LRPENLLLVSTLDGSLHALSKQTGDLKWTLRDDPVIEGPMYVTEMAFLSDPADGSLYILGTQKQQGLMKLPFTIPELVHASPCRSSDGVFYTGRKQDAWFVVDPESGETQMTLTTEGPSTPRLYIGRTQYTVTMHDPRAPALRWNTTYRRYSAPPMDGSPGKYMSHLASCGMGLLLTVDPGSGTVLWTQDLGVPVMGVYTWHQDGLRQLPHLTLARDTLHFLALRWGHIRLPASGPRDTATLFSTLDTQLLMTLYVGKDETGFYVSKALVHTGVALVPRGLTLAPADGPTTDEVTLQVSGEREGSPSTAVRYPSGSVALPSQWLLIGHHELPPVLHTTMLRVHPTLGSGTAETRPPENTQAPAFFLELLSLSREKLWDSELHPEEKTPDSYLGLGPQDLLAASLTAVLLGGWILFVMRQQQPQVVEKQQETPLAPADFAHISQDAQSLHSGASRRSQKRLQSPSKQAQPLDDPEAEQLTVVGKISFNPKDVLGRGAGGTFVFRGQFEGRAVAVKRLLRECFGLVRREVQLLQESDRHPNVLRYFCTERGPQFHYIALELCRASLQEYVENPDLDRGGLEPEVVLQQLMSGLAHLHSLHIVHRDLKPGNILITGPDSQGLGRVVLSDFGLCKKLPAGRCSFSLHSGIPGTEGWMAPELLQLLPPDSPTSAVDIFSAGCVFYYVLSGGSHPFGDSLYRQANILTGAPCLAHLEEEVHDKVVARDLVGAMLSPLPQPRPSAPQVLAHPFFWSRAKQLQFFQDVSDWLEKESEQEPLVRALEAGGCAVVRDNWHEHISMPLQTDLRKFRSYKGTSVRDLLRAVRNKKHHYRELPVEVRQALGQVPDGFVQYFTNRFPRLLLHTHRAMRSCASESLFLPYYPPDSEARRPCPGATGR
Description: as §1

[13] = target: T13, panel of 371 human kinases (Homo sapiens, UniProt P10398); settings: ARAF; 0.1 μM; 10 μM ATP; read-out: % Enzyme Activity (relative to DMSO controls)
T13 construct: purchased Reaction Biology Corp
T13 sequence (P10398 whole entry): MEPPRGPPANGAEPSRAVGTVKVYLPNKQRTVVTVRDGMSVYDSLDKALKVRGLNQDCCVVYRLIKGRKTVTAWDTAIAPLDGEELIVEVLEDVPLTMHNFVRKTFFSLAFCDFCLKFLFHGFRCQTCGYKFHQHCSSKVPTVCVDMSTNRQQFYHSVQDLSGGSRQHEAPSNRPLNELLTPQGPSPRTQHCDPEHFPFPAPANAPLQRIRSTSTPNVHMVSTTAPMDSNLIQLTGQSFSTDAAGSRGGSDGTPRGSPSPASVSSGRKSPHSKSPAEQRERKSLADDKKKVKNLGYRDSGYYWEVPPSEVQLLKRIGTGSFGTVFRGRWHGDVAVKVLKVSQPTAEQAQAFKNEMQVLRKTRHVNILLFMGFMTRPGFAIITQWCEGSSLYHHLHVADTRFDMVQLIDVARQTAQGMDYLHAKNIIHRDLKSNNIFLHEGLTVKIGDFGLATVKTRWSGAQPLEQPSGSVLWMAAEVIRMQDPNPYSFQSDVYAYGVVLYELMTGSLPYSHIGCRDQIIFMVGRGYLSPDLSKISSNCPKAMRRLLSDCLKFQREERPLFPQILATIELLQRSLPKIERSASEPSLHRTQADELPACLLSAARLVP
Description: as §1

[14] = target: T14, panel of 371 human kinases (Homo sapiens, UniProt O43781); settings: DYRK3; 0.1 μM; 10 μM ATP; read-out: % Enzyme Activity (relative to DMSO controls)
T14 construct: purchased Reaction Biology Corp
Description: as §1

[15] = target: T15, panel of 371 human kinases (Homo sapiens, UniProt Q00536); settings: CDK16/cyclin Y (PCTAIRE); 0.1 μM; 10 μM ATP; read-out: % Enzyme Activity (relative to DMSO controls)
T15 construct: purchased Reaction Biology Corp
Description: as §1

[16] = target: T16, panel of 371 human kinases (Homo sapiens, UniProt Q16539); settings: P38a/MAPK14; 0.1 μM; 10 μM ATP; read-out: % Enzyme Activity (relative to DMSO controls)
T16 construct: purchased Reaction Biology Corp
T16 sequence (Q16539 whole entry): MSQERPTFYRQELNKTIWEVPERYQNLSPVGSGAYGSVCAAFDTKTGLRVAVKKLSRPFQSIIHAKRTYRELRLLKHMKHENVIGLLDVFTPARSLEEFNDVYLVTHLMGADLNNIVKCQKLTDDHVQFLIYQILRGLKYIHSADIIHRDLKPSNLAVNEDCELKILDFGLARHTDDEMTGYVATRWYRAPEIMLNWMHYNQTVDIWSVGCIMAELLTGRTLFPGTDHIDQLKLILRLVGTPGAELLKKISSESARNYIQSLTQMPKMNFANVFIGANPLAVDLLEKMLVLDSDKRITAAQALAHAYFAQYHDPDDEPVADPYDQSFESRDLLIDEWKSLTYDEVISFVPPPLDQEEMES
Description: as §1

[17] = target: T17, panel of 371 human kinases (Homo sapiens, UniProt Q15759); settings: P38b/MAPK11; 0.1 μM; 10 μM ATP; read-out: % Enzyme Activity (relative to DMSO controls)
T17 construct: purchased Reaction Biology Corp
Description: as §1

[18] = target: T18, panel of 371 human kinases (Homo sapiens, UniProt P36894); settings: ALK1/BMPR1A; 0.1 μM; 10 μM ATP; read-out: % Enzyme Activity (relative to DMSO controls)
T18 construct: purchased Reaction Biology Corp
T18 sequence (P36894 24-532): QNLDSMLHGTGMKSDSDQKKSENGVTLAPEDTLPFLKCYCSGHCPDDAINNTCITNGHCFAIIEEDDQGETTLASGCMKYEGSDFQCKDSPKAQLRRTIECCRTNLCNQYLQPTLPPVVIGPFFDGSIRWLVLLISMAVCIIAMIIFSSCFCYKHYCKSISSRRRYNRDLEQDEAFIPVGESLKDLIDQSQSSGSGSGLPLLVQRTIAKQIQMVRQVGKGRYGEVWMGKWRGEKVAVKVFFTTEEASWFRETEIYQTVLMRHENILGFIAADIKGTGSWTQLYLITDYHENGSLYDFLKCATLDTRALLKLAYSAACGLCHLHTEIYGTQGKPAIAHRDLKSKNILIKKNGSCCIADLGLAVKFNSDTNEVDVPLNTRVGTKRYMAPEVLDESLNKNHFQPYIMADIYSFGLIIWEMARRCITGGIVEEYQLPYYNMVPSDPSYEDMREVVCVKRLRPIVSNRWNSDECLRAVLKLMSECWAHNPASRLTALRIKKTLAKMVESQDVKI
Description: as §1

[19] = target: T19, panel of 371 human kinases (Homo sapiens, UniProt Q8TDC3); settings: BRSK1; 0.1 μM; 10 μM ATP; read-out: % Enzyme Activity (relative to DMSO controls)
T19 construct: purchased Reaction Biology Corp
T19 sequence (Q8TDC3 whole entry): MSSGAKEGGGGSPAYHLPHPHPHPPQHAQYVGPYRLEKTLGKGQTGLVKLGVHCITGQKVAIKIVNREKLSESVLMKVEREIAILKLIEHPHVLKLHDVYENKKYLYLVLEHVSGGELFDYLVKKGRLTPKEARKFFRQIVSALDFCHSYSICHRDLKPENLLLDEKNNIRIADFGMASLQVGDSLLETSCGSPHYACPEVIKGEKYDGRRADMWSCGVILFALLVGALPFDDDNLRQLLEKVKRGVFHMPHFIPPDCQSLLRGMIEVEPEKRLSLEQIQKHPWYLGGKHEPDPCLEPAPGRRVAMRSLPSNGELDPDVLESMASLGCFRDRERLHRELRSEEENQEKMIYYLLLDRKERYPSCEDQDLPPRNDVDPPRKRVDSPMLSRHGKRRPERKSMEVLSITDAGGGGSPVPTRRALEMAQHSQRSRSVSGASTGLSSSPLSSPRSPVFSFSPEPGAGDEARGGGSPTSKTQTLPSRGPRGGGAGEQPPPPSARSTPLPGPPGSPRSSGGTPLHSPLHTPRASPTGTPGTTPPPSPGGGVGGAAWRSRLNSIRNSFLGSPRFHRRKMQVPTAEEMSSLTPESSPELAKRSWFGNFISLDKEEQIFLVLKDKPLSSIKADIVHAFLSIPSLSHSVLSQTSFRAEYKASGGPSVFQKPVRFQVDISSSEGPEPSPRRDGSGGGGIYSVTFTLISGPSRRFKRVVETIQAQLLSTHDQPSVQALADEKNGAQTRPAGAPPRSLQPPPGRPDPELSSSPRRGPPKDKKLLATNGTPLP
Description: as §1

[20] = target: T20, panel of 371 human kinases (Homo sapiens, UniProt Q16816); settings: PHKg1; 0.1 μM; 10 μM ATP; read-out: % Enzyme Activity (relative to DMSO controls)
T20 construct: purchased Reaction Biology Corp
Description: as §1

[21] = target: T21, panel of 371 human kinases (Homo sapiens, UniProt O75116); settings: ROCK2; 0.1 μM; 10 μM ATP; read-out: % Enzyme Activity (relative to DMSO controls)
T21 construct: purchased Reaction Biology Corp
Description: as §1

[22] = target: T22, panel of 371 human kinases (Homo sapiens, UniProt Q16644); settings: MAPKAPK3; 0.1 μM; 10 μM ATP; read-out: % Enzyme Activity (relative to DMSO controls)
T22 construct: purchased Reaction Biology Corp
T22 sequence (Q16644 whole entry): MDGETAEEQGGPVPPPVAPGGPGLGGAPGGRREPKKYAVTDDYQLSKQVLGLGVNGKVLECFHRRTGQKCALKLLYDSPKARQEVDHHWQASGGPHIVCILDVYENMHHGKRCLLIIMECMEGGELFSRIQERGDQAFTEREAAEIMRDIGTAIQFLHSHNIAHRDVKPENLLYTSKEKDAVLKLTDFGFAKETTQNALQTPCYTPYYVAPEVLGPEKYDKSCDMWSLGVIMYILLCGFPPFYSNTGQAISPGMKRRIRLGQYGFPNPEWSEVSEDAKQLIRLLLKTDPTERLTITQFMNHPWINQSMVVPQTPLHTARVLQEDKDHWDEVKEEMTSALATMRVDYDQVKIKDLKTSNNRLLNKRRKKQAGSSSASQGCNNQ
Description: as §1

[23] = target: T23, panel of 371 human kinases (Homo sapiens, UniProt Q05655); settings: PKCd; 0.1 μM; 10 μM ATP; read-out: % Enzyme Activity (relative to DMSO controls)
T23 construct: purchased Reaction Biology Corp
T23 sequence (Q05655 whole entry): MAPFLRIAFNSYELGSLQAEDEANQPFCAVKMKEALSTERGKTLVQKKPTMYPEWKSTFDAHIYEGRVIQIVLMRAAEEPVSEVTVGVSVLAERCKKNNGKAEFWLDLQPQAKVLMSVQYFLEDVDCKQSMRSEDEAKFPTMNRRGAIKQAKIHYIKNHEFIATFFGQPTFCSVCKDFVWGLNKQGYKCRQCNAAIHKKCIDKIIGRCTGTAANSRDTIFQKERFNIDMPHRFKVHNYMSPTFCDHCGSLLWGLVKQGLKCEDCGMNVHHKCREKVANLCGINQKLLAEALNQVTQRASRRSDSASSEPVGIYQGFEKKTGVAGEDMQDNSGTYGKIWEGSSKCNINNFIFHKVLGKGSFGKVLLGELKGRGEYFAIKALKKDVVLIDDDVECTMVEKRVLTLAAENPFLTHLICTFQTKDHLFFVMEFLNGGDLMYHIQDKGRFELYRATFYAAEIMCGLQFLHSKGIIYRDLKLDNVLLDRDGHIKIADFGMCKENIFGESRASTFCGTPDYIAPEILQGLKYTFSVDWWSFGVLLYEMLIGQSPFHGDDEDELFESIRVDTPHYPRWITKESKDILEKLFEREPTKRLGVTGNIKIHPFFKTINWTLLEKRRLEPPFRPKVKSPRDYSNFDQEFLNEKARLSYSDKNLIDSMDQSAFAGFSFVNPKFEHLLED
Description: as §1

[24] = target: T24, panel of 371 human kinases (Homo sapiens, UniProt Q9P1W9); settings: PIM2; 0.1 μM; 10 μM ATP; read-out: % Enzyme Activity (relative to DMSO controls)
T24 construct: purchased Reaction Biology Corp
T24 sequence (Q9P1W9 whole entry): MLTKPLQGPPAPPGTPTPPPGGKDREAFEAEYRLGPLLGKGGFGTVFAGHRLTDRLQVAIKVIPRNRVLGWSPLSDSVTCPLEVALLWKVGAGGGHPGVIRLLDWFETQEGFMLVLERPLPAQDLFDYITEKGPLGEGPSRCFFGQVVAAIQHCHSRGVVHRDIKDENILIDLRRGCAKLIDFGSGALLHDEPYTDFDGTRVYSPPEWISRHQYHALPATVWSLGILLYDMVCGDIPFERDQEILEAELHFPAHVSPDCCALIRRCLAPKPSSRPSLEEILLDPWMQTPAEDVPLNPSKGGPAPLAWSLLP
Description: as §1

| SMILES | remaining activity at 0.1 µM [1] [%] | remaining activity at 0.1 µM [2] [%] | remaining activity at 0.1 µM [3] [%] | remaining activity at 0.1 µM [4] [%] | remaining activity at 0.1 µM [5] [%] | remaining activity at 0.1 µM [6] [%] | remaining activity at 0.1 µM [7] [%] | remaining activity at 0.1 µM [8] [%] | remaining activity at 0.1 µM [9] [%] | remaining activity at 0.1 µM [10] [%] | remaining activity at 0.1 µM [11] [%] | remaining activity at 0.1 µM [12] [%] | remaining activity at 0.1 µM [13] [%] | remaining activity at 0.1 µM [14] [%] | remaining activity at 0.1 µM [15] [%] | remaining activity at 0.1 µM [16] [%] | remaining activity at 0.1 µM [17] [%] | remaining activity at 0.1 µM [18] [%] | remaining activity at 0.1 µM [19] [%] | remaining activity at 0.1 µM [20] [%] | also measured |
| --- | --- | --- | --- | --- | --- | --- | --- | --- | --- | --- | --- | --- | --- | --- | --- | --- | --- | --- | --- | --- | --- |
| CN1CCN(Cc2ccc(-c3cnc4[nH]cc(-c5ccc6[nH]ccc6c5)c4c3)cc2)CC1 [Compound 1, 3-(1H-Indol-5-yl)-5-(4-((4-methylpiperazin-1-yl)methyl)phenyl)-1H-pyrrolo[2,3-b]pyridine, reference compound] | 104 | 111 | 78.5 | 100 | 89.8 | 104 | 71.2 | 97.6 | 91.6 | 101 | 97 | 92.3 | 108 | 74.9 | 130 | 105 | 87.4 | 97 | 80.8 | 37.6 | remaining activity at 0.1 µM [21]: 71.1%; remaining activity at 0.1 µM [22]: 101%; remaining activity at 0.1 µM [23]: 92.3%; remaining activity at 0.1 µM [24]: 106% |
| OCCN1CCN(Cc2ccc(-c3cnc4[nH]cc(-c5cccc(Cl)c5)c4c3)cc2)CC1 [Compound 12k, 2-(4-(4-(3-(3-Chlorophenyl)-1H-pyrrolo[2,3-b]pyridin-5-yl)benzyl)piperazin-1-yl)ethan-1-ol] | 97.2 | 106 | 92.3 | 95.9 | 87.4 | 103 | 78.4 | 98.5 | 97.5 | 96.8 | 93.4 | 64.3 | 96.6 | 89.2 | 97.3 | 103 | 94.2 | 96.8 | 83.6 | 74.5 | remaining activity at 0.1 µM [21]: 55.6%; remaining activity at 0.1 µM [22]: 96.7%; remaining activity at 0.1 µM [23]: 102%; remaining activity at 0.1 µM [24]: 106% |
